Experimental data reported in patent US10391108B2 (BioPharmX, Inc., priority 2015, dated 2019).

Test system: P. acnes ATCC 6919
Assay: Minimum Inhibitory Concentration (MIC), broth microdilution
Assay type: cell-based
Details: 37° C., 2 days, anaerobic, tested 0.0078 to 16 μg/mL
Description: The antimicrobial activity of minocycline was assessed by measuring the Minimum Inhibitory Concentration (MIC). MIC was also assessed for several other materials and combinations and relative MIC values were calculated as multiples of the minocycline MIC value. […] Test material was dissolved in water, diluted by two-fold serial titrations for a total of 11 concentrations. A 96-well plate was prepared by adding 196 μL of broth medium seeded with a strain of P. acnes ATCC 6919 bacteria. A 4 μL aliquot of a test substance dilution was added to each well to bring the total volume in each well to 200 μL. The test substance concentrations tested ranged from 0.0078 to 16 μg/mL. Plates were incubated at 37° C. for 2 days in anaerobic conditions. 96-well plates were read by a TECAN […] F50 ELISA microplate reader (Männedorf, Switzerland) in absorbance mode with a wavelength of 620 nm. Each well was evaluated for whether growth occurred or was inhibited. The lowest concentration for which growth was inhibited was recorded as the MIC. Each test substance was evaluated in duplicate.

In the case of `[Cl-].[Cl-].[Mg+2]` [Magnesium chloride, magnesium chloride], the MIC value is reported as “did not inhibit growth at any of the concentrations tested”.
